According to paper PMC10099721, “Substrate Induced Movement of the Metal Cofactor between Active and Resting State” (Angewandte Chemie (International Ed. in English), 2022):

Assays:
Format in all cases: binding
[1] = molecular target: T1, SwHKA (hydroxyketoacid aldolase from Sphingomonas wittichii RW1) (Rhizorhabdus wittichii, UniProt A0A9J9HGY6); test: X-ray crystal structure; settings: with hydroxypyruvate in the active site; H-bonds to R69 and R120'
T1 construct: gene Swit_5035; N-terminal His6-tag, E. coli BL21(DE3), 251 residues per monomer, homohexamer (trimer of domain-swapped dimers), divalent metal dependent

[2] = molecular target: T2, SwHKA (hydroxyketoacid aldolase from Sphingomonas wittichii RW1) (Rhizorhabdus wittichii, UniProt A0A9J9HGY6, S116C); test: nanoDSF melting temperature; settings: absolute Tm, not a shift; MgCl2 10 mM, hydroxypyruvate 20 mM, Hepes 20 mM pH 7.5
T2 construct: gene Swit_5035; N-terminal His6-tag, E. coli BL21(DE3), 251 residues per monomer, homohexamer (trimer of domain-swapped dimers), divalent metal dependent

[3] = molecular target: T3, SwHKA (hydroxyketoacid aldolase from Sphingomonas wittichii RW1) (Rhizorhabdus wittichii, UniProt A0A9J9HGY6, F210W); test: X-ray crystal structure, […] A, soaked crystal; settings: MgCl2 soak; bound in monomer B only; PDB id printed as 7OBU in the text but 7O87 (as F201W-HPA) in the Figure 2 legend
T3 construct: gene Swit_5035; N-terminal His6-tag, E. coli BL21(DE3), 251 residues per monomer, homohexamer (trimer of domain-swapped dimers), divalent metal dependent

[4] = molecular target: T4, SwHKA (hydroxyketoacid aldolase from Sphingomonas wittichii RW1) (Rhizorhabdus wittichii, UniProt A0A9J9HGY6, S116A); test: X-ray crystal structure; settings: bound to the active-state metal, distorted geometry
T4 construct: gene Swit_5035; N-terminal His6-tag, E. coli BL21(DE3), 251 residues per monomer, homohexamer (trimer of domain-swapped dimers), divalent metal dependent
T4 sequence (A0A9J9HGY6 whole entry S116A, the tested form may be a part): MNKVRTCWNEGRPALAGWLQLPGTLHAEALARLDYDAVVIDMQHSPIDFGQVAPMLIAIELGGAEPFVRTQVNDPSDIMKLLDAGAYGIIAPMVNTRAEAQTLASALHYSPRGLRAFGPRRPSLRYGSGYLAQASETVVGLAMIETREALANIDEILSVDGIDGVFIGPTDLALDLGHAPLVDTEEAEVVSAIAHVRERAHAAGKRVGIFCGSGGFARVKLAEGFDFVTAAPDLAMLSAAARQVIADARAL

T1 sequence (A0A9J9HGY6 whole entry, the tested form may be a part): as the sequence (A0A9J9HGY6 whole entry S116A, the tested form may be a part) above, with A116S counted along it
T2 sequence (A0A9J9HGY6 whole entry S116C, the tested form may be a part): as the sequence (A0A9J9HGY6 whole entry S116A, the tested form may be a part) above, with A116C counted along it
T3 sequence (A0A9J9HGY6 whole entry F210W, the tested form may be a part): as the sequence (A0A9J9HGY6 whole entry S116A, the tested form may be a part) above, with A116S, F210W counted along it

Compound	X-ray crystal structure [1]	Tm [2] [°C]	X-ray crystal structure, 1.2 A, soaked crystal [3]	X-ray crystal structure [4]
O=C[C@H](O)CO [D-glyceraldehyde]	Close‐up view of the active site of SwHKA with DGA bound (PDBID 8ADQ)			
O=C(O)C(=O)CO [hydroxypyruvate]		73	crystal structure of variant F210W soaked with MgCl2 and hydroxypyruvate could now be solved	showed a strangely distorted geometry (Figure S13, S116A‐HPA PDBID 7NNK)
